Like-named read-outs stand apart in the source and are kept apart here.
What was measured:
Alopecurus = test: Pre-emergence test/greenhouse; type: in vivo; conditions: 500 g of ai/ha, after three weeks
Protocol: (§1) Solvent: 5 parts by weight of acetone
(§2) Emulsifier: 1 part by weight of alkylaryl polyglycol ether
(§3) To produce a suitable preparation of active compound, 1 part by weight of active compound is mixed with the stated amount of solvent, the stated amount of emulsifier is added and the concentrate is diluted with water to the desired concentration.
(§4) Seeds of the test plants are sown in normal soil. After about 24 hours, the soil is sprayed with the preparation of active compound such that the particular amount of active compound desired is applied per unit area. The concentration of the spray liquor is chosen so that the particular amount of active compound desired is applied in 1000 litre of water per hectare.
(§5) After three weeks, the degree of damage to the plants is rated in % damage in comparison to the development of the untreated controls.
(§6) 0%=no effect (like untreated control)

Avena fatua [1] = test: Pre-emergence test/greenhouse; type: in vivo; conditions: 500 g of ai/ha, after three weeks
Protocol: as §1, §2, §3, §4, §5, §6

Echinochloa = test: Pre-emergence test/greenhouse; type: in vivo; conditions: 500 g of ai/ha, after three weeks
Protocol: as §1, §2, §3, §4, §5, §6

Maize = test: Pre-emergence test/greenhouse; type: in vivo; conditions: after three weeks, crop plant
Protocol: as §1, §2, §3, §4, §5, §6

Setaria [2] = test: Pre-emergence test/greenhouse; type: in vivo; conditions: after three weeks
Protocol: as §1, §2, §3, §4, §5, §6

weeds [3] = test: Pre-emergence test; type: in vivo; conditions: result in words
Protocol: as §1, §2, §3, §4, §5, §6

Avena fatua [4] = test: Post-emergence test/greenhouse; type: in vivo; conditions: 500 g of ai/ha, after three weeks
Protocol: as §1, §2, §3
(§7) Test plants which have a height of 5 to 15 cm are sprayed with the preparation of active compound such that the particular amounts of active compound desired are applied per unit area. The concentration of the spray liquor is chosen so that the particular amounts of active compound desired are applied in 1000 l of water/ha.
(§8) After three weeks, the degree of damage to the plants is rated in % damage in comparison to the development of the untreated control.
as §6

Galium = test: Post-emergence test/greenhouse; type: in vivo; conditions: after three weeks
Protocol: as §1, §2, §3, §7, §8, §6

Ipomoea = test: Post-emergence test/greenhouse; type: in vivo; conditions: 500 g of ai/ha, after three weeks
Protocol: as §1, §2, §3, §7, §8, §6

Setaria [5] = test: Post-emergence test/greenhouse; type: in vivo; conditions: after three weeks
Protocol: as §1, §2, §3, §7, §8, §6

weeds [6] = test: Post-emergence test; type: in vivo; conditions: result in words
Protocol: as §1, §2, §3, §7, §8, §6

[7] = logP by HPLC on reversed-phase column (EEC directive 79/831 Annex V.A8); type: physicochemical
Protocol: The lopP values given in Table 1 were determined in accordance with EEC directive 79/831 Annex V.A8 by HPLC (High Performance Liquid Chromatography) on a reversed-phase column (C 18). Temperature: 43° C. (a) Mobile phases for the determination in the acidic range: 0.1% aqueous phosphoric acid, acetonitrile; linear gradient of 10% acetonitrile to 90% acetonitrile—corresponding data in Table 1 are labelled a). Calibration was carried out using unbranched alkan-2-ones (with 3 to 16 carbon atoms) whose logP values are known (determination of the logP values by the retention times using linear interpolation between two successive alkanones).

Amaranthus [8] = test: Pre-emergence test/greenhouse; type: in vivo; conditions: after three weeks
Protocol: as §1, §2, §3, §4, §5, §6

Cotton = test: Pre-emergence test/greenhouse; type: in vivo; conditions: 500 g of ai/ha, after three weeks, crop plant
Protocol: as §1, §2, §3, §4, §5, §6

Eriochloa = test: Pre-emergence test/greenhouse; type: in vivo; conditions: 500 g of ai/ha, after three weeks
Protocol: as §1, §2, §3, §4, §5, §6

Lolium = test: Pre-emergence test/greenhouse; type: in vivo; conditions: 500 g of ai/ha, after three weeks
Protocol: as §1, §2, §3, §4, §5, §6

Amaranthus [9] = test: Post-emergence test/greenhouse; type: in vivo; conditions: after three weeks
Protocol: as §1, §2, §3, §7, §8, §6

Sinapis [10] = test: Post-emergence test/greenhouse; type: in vivo; conditions: after three weeks
Protocol: as §1, §2, §3, §7, §8, §6

Matricaria = test: Pre-emergence test/greenhouse; type: in vivo; conditions: 125 g of ai/ha, after three weeks
Protocol: as §1, §2, §3, §4, §5, §6

Veronica = test: Pre-emergence test/greenhouse; type: in vivo; conditions: 125 g of ai/ha, after three weeks
Protocol: as §1, §2, §3, §4, §5, §6

Sinapis [11] = test: Pre-emergence test/greenhouse; type: in vivo; conditions: 500 g of ai/ha, after three weeks
Protocol: as §1, §2, §3, §4, §5, §6

Digitaria = test: Pre-emergence test/greenhouse; type: in vivo; conditions: 500 g of ai/ha, after three weeks
Protocol: as §1, §2, §3, §4, §5, §6

Wheat = test: Pre-emergence test/greenhouse; type: in vivo; conditions: 500 g of ai/ha, after three weeks, crop plant
Protocol: as §1, §2, §3, §4, §5, §6

Sugar beet = test: Pre-emergence test/greenhouse; type: in vivo; conditions: 500 g of ai/ha, after three weeks, crop plant
Protocol: as §1, §2, §3, §4, §5, §6

[12] = reversed-phase HPLC column (C 18); a) acidic range: 0.1% aqueous phosphoric acid, acetonitrile gradient, HPLC C 18, 43° C., read-out: logP

Q: Which results are given for `CC(C)(C)N(C(=O)COc1nnc(C(F)(F)F)s1)c1ccc(Cl)cc1` [Example 1, N-(t-butyl)-N-(4-chlorophenyl)-2-(5-trifluoromethyl-1,3,4-thiadiazol-2-yl-oxy)-acetamide]?
A: degree of damage, Alopecurus (Alopecurus): 80%; degree of damage, Avena fatua (Avena fatua [1]): 80%; degree of damage, Echinochloa (Echinochloa): 95%; degree of damage, Maize (Maize; 500 g of ai/ha): 0%; degree of damage, Setaria (Setaria [2]; 500 g of ai/ha): 100%; activity against weeds (weeds [3]): strong activity; degree of damage, Avena fatua (Avena fatua [4]): 80%; degree of damage, Galium (Galium; 500 g of ai/ha): 90%; degree of damage, Ipomoea (Ipomoea): 90%; degree of damage, Setaria (Setaria [5]; 500 g of ai/ha): 90%; activity against weeds (weeds [6]): strong activity; melting point: 82 °C

Q: Which results are given for `C#CCN(C(=O)COc1nnc(C(F)(F)F)s1)c1cccc(C(F)(F)F)c1` [Example 3]?
A: chromatographic logP [7, 12]: 3.45; degree of damage, Amaranthus (Amaranthus [8]; 500 g of ai/ha): 100%; degree of damage, Cotton (Cotton): 0%; degree of damage, Eriochloa (Eriochloa): 95%; degree of damage, Lolium (Lolium): 100%; degree of damage, Maize (Maize; 500 g of ai/ha): 0%; degree of damage, Setaria (Setaria [2]; 500 g of ai/ha): 100%; activity against weeds (weeds [3]): strong activity; degree of damage, Amaranthus (Amaranthus [9]; 2000 g of ai/ha): 100%; degree of damage, Galium (Galium; 2000 g of ai/ha): 90%; degree of damage, Setaria (Setaria [5]; 2000 g of ai/ha): 95%; degree of damage, Sinapis (Sinapis [10]; 2000 g of ai/ha): 100%; activity against weeds (weeds [6]): strong activity

Q: With `C#CCN(C(=O)COc1nnc(C(F)(F)F)s1)c1ccc(F)cc1` [Example 4] as the compound, how does the chromatographic logP [7, 12] read?
A: The chromatographic logP was 2.97.

Q: And the “degree of damage, Amaranthus” value (Amaranthus [8]; 125 g of ai/ha)?
A: The value was 100%.

Q: What about the “degree of damage, Maize” value (Maize; 125 g of ai/ha) of the same compound?
A: The value was 0%.

Q: What about the “degree of damage, Matricaria” value (Matricaria) of the same compound?
A: The value was 100%.

Q: And the “degree of damage, Setaria” value (Setaria [2]; 125 g of ai/ha)?
A: The value was 100%.

Q: What about the “degree of damage, Veronica” value (Veronica) of the same compound?
A: Its value is 100%.

Q: And the activity against weeds (weeds [3])?
A: The activity against weeds was “strong activity”.

Q: And the “degree of damage, Amaranthus” value (Amaranthus [9]; 2000 g of ai/ha)?
A: The value was 95%.

Q: And the “degree of damage, Galium” value (Galium; 2000 g of ai/ha)?
A: Its value is 90%.

Q: And the “degree of damage, Setaria” value (Setaria [5]; 2000 g of ai/ha)?
A: The value was 90%.

Q: And the “degree of damage, Sinapis” value (Sinapis [10]; 2000 g of ai/ha)?
A: The value was 95%.

Q: And the activity against weeds (weeds [6])?
A: The activity against weeds was “strong activity”.

Q: For `C#CCN(C(=O)COc1nc2ccccc2o1)c1ccc(F)cc1` [Example 6], which “degree of damage, Amaranthus” value (Amaranthus [8]; 500 g of ai/ha) is on record?
A: Its value is 100%.

Q: What about the “degree of damage, Setaria” value (Setaria [2]; 500 g of ai/ha) of the same compound?
A: The value was 100%.

Q: What about the “degree of damage, Sinapis” value (Sinapis [11]) of the same compound?
A: Its value is 95%.

Q: And the activity against weeds (weeds [3])?
A: The activity against weeds was “strong activity”.

Q: What about the “degree of damage, Amaranthus” value (Amaranthus [9]; 500 g of ai/ha) of the same compound?
A: Its value is 90%.

Q: And the “degree of damage, Galium” value (Galium; 500 g of ai/ha)?
A: The value was 90%.

Q: What about the “degree of damage, Setaria” value (Setaria [5]; 500 g of ai/ha) of the same compound?
A: The value was 90%.

Q: And the activity against weeds (weeds [6])?
A: Its activity against weeds is “strong activity”.

Q: What about the melting point of the same compound?
A: Its melting point is 138 °C.

Q: Which results are given for `CC(C)(C)N(C(=O)COc1nnc(C(F)(F)F)s1)c1ccc(F)cc1` [Example 7]?
A: degree of damage, Alopecurus (Alopecurus): 90%; degree of damage, Amaranthus (Amaranthus [8]; 500 g of ai/ha): 95%; degree of damage, Digitaria (Digitaria): 100%; degree of damage, Eriochloa (Eriochloa): 100%; degree of damage, Setaria (Setaria [2]; 500 g of ai/ha): 100%; degree of damage, Wheat (Wheat): 0%; activity against weeds (weeds [3]): strong activity; degree of damage, Amaranthus (Amaranthus [9]; 1000 g of ai/ha): 80%; degree of damage, Galium (Galium; 1000 g of ai/ha): 95%; degree of damage, Setaria (Setaria [5]; 1000 g of ai/ha): 80%; degree of damage, Sinapis (Sinapis [10]; 1000 g of ai/ha): 80%; activity against weeds (weeds [6]): strong activity; melting point: 85 °C

Q: Which results are given for `CC(C)(C)N(C(=O)COc1nnc(C(F)(F)F)s1)c1cccc(Cl)c1` [Example 9]?
A: degree of damage, Echinochloa (Echinochloa): 95%; degree of damage, Maize (Maize; 500 g of ai/ha): 0%; degree of damage, Setaria (Setaria [2]; 500 g of ai/ha): 100%; degree of damage, Sugar beet (Sugar beet): 0%; activity against weeds (weeds [3]): strong activity; degree of damage, Galium (Galium; 500 g of ai/ha): 90%; degree of damage, Ipomoea (Ipomoea): 90%; degree of damage, Setaria (Setaria [5]; 500 g of ai/ha): 70%; activity against weeds (weeds [6]): strong activity; melting point: 84 °C

Q: Which chromatographic logP ([7]; reversed-phase HPLC column (C 18), pH=2.3, read-out: logP (at pH=2.3)) does the source give for `CC(C)(C)N(C(=O)CO)c1ccc(Cl)cc1` [III-1, N-(t-butyl)-N-(4-chlorophenyl)-2-hydroxyacetamide] here?
A: The chromatographic logP was 2.54.

Q: Which melting point does the source give for `C#CCN(C(=O)CO)c1ccc(F)cc1` [III-2, N-(4-fluorophenyl)-N-(2-propinyl)-2-hydroxyacetamide] here?
A: The melting point was 57 °C.

Q: With `CC(C)(C)N(C(=O)CCl)c1ccc(Cl)cc1` [IV-1, N-(t-butyl)-N-(4-chlorophenyl)-2-chloroacetamide] as the compound, how does the chromatographic logP ([7]; reversed-phase HPLC column (C 18), pH=2.5, read-out: logP (at pH=2.5)) read?
A: The chromatographic logP was 3.34.

Q: Which logP [7] does the source give for `C#CCN(C(=O)CCl)c1ccc(F)cc1` [IV-2, N-(4-fluorophenyl)-N-(2-propinyl)-2-chloroacetamide] here?
A: The logP was “logP = 2.69^a)”.
